Measurements from patent publication US20220249479A1, “MODIFIED RELEASE FORMULATION OF A PYRIMIDINYLAMINO-PYRAZOLE COMPOUND, AND METHODS OF TREATMENT” (DENALI THERAPEUTICS INC., priority 2019, published 2022).

Test: Multiple-dose PK of API-in-capsule formulation BID for 10 days in healthy human subjects
Format: in vivo
Protocol: The mean CSF to unbound plasma ratio was about 1.0. Data shown is from 25, 80, and100 mg BID multiple dose cohorts.
Formula I compound was administered to healthy young human subjects as an API-in- capsule formulation at doses of 25 mg, 40 mg, 80 mg and 100 mg BID, and to healthy elder subjects at 80 mg BID. Formula I compound concentrations were determined on Day 1 and 10 and at trough on selected day during the 10 days of administration. […] The terminal half-life, and plasma concentrations and pS935 inhibition at trough (minima) are consistent with twice-daily administration as an efficacious regimen.
[…] variability in the ratio was seen because of the parallel (non-crossover) nature of the study design. […] Physiologically-based PK modelling, was used to predict the Cmax/Cmin ratio for MUPS formulations contain various amounts of KOLLICOAT® polymer.

- plasma Cmax and AUC versus dose (25 to 100 mg BID dose range): dose-proportional
- Kp at 10 day (human, CSF / unbound plasma, oral, healthy young and healthy elderly, Day 10, 25, 80 and 100 mg BID immediate release capsule, read-out: mean CSF to unbound plasma ratio): ~1
- half-life (human, plasma, oral, postdose Day 10, 25-100 mg BID, read-out: terminal half-life in plasma): 14 to 26 h
Compound: CNc1nc(Nc2cn(C(C)(C)C#N)nc2C)ncc1C(F)(F)F [Formula I compound, 2-methyl-2-(3-methyl-4-(4-(methylamino)-5-(trifluoromethyl)pyrimidin-2-ylamino)-1H-pyrazol-1-yl)propanenitrile]
